The subject of data set [1] is Enterococcus faecium. The data set is described as follows: Antibacterial activity against vancomycin A-resistant Enterococcus faecium clinical isolate after 24 hrs by broth microdilution method. Particulars: read-out: MIC. In kind it is functional. On the technique in general: Dilution methods test growth across graded concentrations, often in twofold steps.
The nature of data set [2]: Toxicity assessed as hemolysis in erythrocytes at 180 mg/L. In kind it is cell-based, Erythrocyte. As to conditions: human, erythrocytes; read-out: Activity.
Data set [3] concerns Staphylococcus aureus. Nature of the data set: Antibacterial activity against methicillin-resistant and vancomycin-intermediate resistant Staphylococcus aureus clinical isolate after 24 hrs by broth microdilution method. In kind it is functional. As to conditions: read-out: MIC.
Data set [4] relates to Staphylococcus aureus. The data set is described as follows: Antibacterial activity against vancomycin-intermediate resistant Staphylococcus aureus clinical isolate after 24 hrs by broth microdilution method. In kind it is functional.
Data set [5] relates to Enterococcus faecalis. The data set is described as follows: Antibacterial activity against Enterococcus faecalis after 24 hrs by broth microdilution method. In kind it is functional. As to conditions: read-out: MIC.
Data set [6] concerns Enterococcus faecalis. The data set is described as follows: Antibacterial activity against vancomycin A-resistant Enterococcus faecalis after 24 hrs by broth microdilution method. The class given is functional. As to conditions: read-out: MIC.
The test system of data set [7] is Enterococcus faecium. Nature of the data set: Antibacterial activity against Enterococcus faecium after 24 hrs by broth microdilution method. In kind it is functional. Particulars: read-out: MIC.
The test system of data set [8] is Staphylococcus aureus. The data set is described as follows: Antibacterial activity against Staphylococcus aureus Smith after 24 hrs by broth microdilution method. In kind it is functional. Particulars: read-out: MIC.
Data set [9] concerns Staphylococcus aureus. Nature of the data set: Antibacterial activity against methicillin-resistant Staphylococcus aureus clinical isolate after 24 hrs by broth microdilution method. The class given is functional. Particulars: read-out: MIC.
For the next data set, the system named is Escherichia coli. Nature of the data set: Antibacterial activity against Escherichia coli SKF-12140 after 24 hrs by broth microdilution method. In kind it is functional. As to conditions: read-out: MIC.
Another data set relates to Candida albicans. The data set is described as follows: Antifungal activity against Candida albicans SKF-2270 after 24 hrs by broth microdilution method. The class given is functional. As to conditions: read-out: MIC.
Another data set relates to Streptococcus pyogenes. Nature of the data set: Antibacterial activity against Streptococcus pyogenes C203 after 24 hrs by broth microdilution method. Particulars: C203, 24 h, read-out: MIC. In kind it is functional.
Data set [10] in a line: Toxicity assessed as hemolysis in erythrocytes at 90 mg/L. In kind it is cell-based, Erythrocyte. Particulars: human, erythrocytes; read-out: Activity.

In brackets after ≈: the same amount, converted by molar mass.

Consider `COc1ccc(CC(=O)N[C@@H](CC(N)=O)C(=O)NC[C@@H]2C(=O)N[C@H](c3ccc(O)cc3)C(=O)N[C@H](CCCN)C(=O)N[C@H](C(C)C)C(=O)N[C@@H](c3ccc(O)cc3)C(=O)N[C@H](c3ccc(O)cc3)C(=O)N[C@@H]([C@@H](C)O)C(=O)N[C@@H](Cc3ccccc3)C(=O)N[C@H](CCCN)C(=O)N[C@@H](c3ccc(O[C@H]4O[C@H](CO)[C@@H](O)[C@H](O)[C@@H]4O[C@H]4O[C@H](CO)[C@@H](O)[C@H](O)[C@@H]4O)cc3)C(=O)N[C@H]([C@@H](C)O)C(=O)N[C@@H](c3ccc(O)cc3)C(=O)NCC(=O)N[C@@H](CC(C)C)C(=O)N[C@H](C)C(=O)N[C@@H](c3ccc(O)c(Cl)c3)C(=O)O[C@@H]2C(N)=O)cc1`, for which the MIC (as a rule, the least concentration at which growth counts as inhibited) with Enterococcus faecium [1] came out at 8 µg/mL (≈ 3.1 µM); in the data set on Staphylococcus aureus [3] it was 32 µg/mL (≈ 12.4 µM); in the data set with Staphylococcus aureus [4], 32 µg/mL (≈ 12.4 µM); in the data set with Enterococcus faecalis [5], 8 µg/mL (≈ 3.1 µM); in the data set on Enterococcus faecalis [6], 8 µg/mL (≈ 3.1 µM); in the data set with Enterococcus faecium [7], 16 µg/mL (≈ 6.21 µM). Also, the MIC in the data set on Staphylococcus aureus [8] was 8 µg/mL (≈ 3.1 µM); in the data set with Staphylococcus aureus [9], 8 µg/mL (≈ 3.1 µM); in the data set with Escherichia coli, > 32 µg/mL; with Candida albicans, > 32 µg/mL; in the data set on Streptococcus pyogenes, 0.125 µg/mL (≈ 0.0485 µM). Besides, in [2], the hemolysis at 180 mg/L is 0%. Further, the hemolysis at 90 mg/L in [10] turned out to be 0%.
Turning to `CCCCC(=O)N[C@@H](CC(N)=O)C(=O)NC[C@@H]1C(=O)N[C@H](c2ccc(O)cc2)C(=O)N[C@H](CCCN)C(=O)N[C@H](C(C)C)C(=O)N[C@@H](c2ccc(O)cc2)C(=O)N[C@H](c2ccc(O)cc2)C(=O)N[C@@H]([C@@H](C)O)C(=O)N[C@@H](Cc2ccccc2)C(=O)N[C@H](CCCN)C(=O)N[C@@H](c2ccc(O[C@H]3O[C@H](CO)[C@@H](O)[C@H](O)[C@@H]3O[C@H]3O[C@H](CO)[C@@H](O)[C@H](O)[C@@H]3O)cc2)C(=O)N[C@H]([C@@H](C)O)C(=O)N[C@@H](c2ccc(O)cc2)C(=O)NCC(=O)N[C@@H](CC(C)C)C(=O)N[C@H](C)C(=O)N[C@@H](c2ccc(O)c(Cl)c2)C(=O)O[C@@H]1C(N)=O`, the MIC is 8 µg/mL (≈ 3.18 µM) with Enterococcus faecium [1]; > 32 µg/mL with Staphylococcus aureus [3]; 32 µg/mL (≈ 12.7 µM) in the data set on Staphylococcus aureus [4]; 8 µg/mL (≈ 3.18 µM) in the data set with Enterococcus faecalis [5]; 8 µg/mL (≈ 3.18 µM) with Enterococcus faecalis [6]; 8 µg/mL (≈ 3.18 µM) in the data set with Enterococcus faecium [7]. Also, the minimum inhibitory concentration (MIC) was 8 µg/mL (≈ 3.18 µM) in the data set with Staphylococcus aureus [8]; 8 µg/mL (≈ 3.18 µM) with Staphylococcus aureus [9]; > 32 µg/mL in the data set with Escherichia coli; > 32 µg/mL with Candida albicans; 0.125 µg/mL (≈ 0.0497 µM) in the data set with Streptococcus pyogenes. Also, the hemolysis at 180 mg/L in data set [2] is 0%. Besides, the hemolysis at 90 mg/L in [10] came to 0%.
Consider `CCCCOc1ccc(C(=O)N[C@@H](CC(N)=O)C(=O)NC[C@@H]2C(=O)N[C@H](c3ccc(O)cc3)C(=O)N[C@H](CCCN)C(=O)N[C@H](C(C)C)C(=O)N[C@@H](c3ccc(O)cc3)C(=O)N[C@H](c3ccc(O)cc3)C(=O)N[C@@H]([C@@H](C)O)C(=O)N[C@@H](Cc3ccccc3)C(=O)N[C@H](CCCN)C(=O)N[C@@H](c3ccc(O[C@H]4O[C@H](CO)[C@@H](O)[C@H](O)[C@@H]4O[C@H]4O[C@H](CO)[C@@H](O)[C@H](O)[C@@H]4O)cc3)C(=O)N[C@H]([C@@H](C)O)C(=O)N[C@@H](c3ccc(O)cc3)C(=O)NCC(=O)N[C@@H](CC(C)C)C(=O)N[C@H](C)C(=O)N[C@@H](c3ccc(O)c(Cl)c3)C(=O)O[C@@H]2C(N)=O)cc1OCCCC`, for which the minimal inhibitory concentration (MIC) amounted to 1 µg/mL (≈ 0.373 µM) in the data set with Enterococcus faecium [1]; 16 µg/mL (≈ 5.97 µM) in the data set with Staphylococcus aureus [3]; 16 µg/mL (≈ 5.97 µM) against Staphylococcus aureus [4]; 1 µg/mL (≈ 0.373 µM) in the data set on Enterococcus faecalis [5]; 1 µg/mL (≈ 0.373 µM) in the data set on Enterococcus faecalis [6]; 1 µg/mL (≈ 0.373 µM) in the data set on Enterococcus faecium [7]. For the same compound, the MIC is 2 µg/mL (≈ 0.747 µM) with Staphylococcus aureus [8]; 8 µg/mL (≈ 2.99 µM) in the data set with Staphylococcus aureus [9]; > 32 µg/mL in the data set on Escherichia coli; > 32 µg/mL in the data set on Candida albicans; 1 µg/mL (≈ 0.373 µM) in the data set on Streptococcus pyogenes. In addition, in data set [2], the hemolysis at 180 mg/L turned out to be 47%. The hemolysis at 90 mg/L in data set [10] amounted to 0%.
Take `CC(C)C[C@@H]1NC(=O)CNC(=O)[C@H](c2ccc(O)cc2)NC(=O)[C@@H]([C@@H](C)O)NC(=O)[C@H](c2ccc(O[C@H]3O[C@H](CO)[C@@H](O)[C@H](O)[C@@H]3O[C@H]3O[C@H](CO)[C@@H](O)[C@H](O)[C@@H]3O)cc2)NC(=O)[C@@H](CCCN)NC(=O)[C@H](Cc2ccccc2)NC(=O)[C@H]([C@@H](C)O)NC(=O)[C@@H](c2ccc(O)cc2)NC(=O)[C@H](c2ccc(O)cc2)NC(=O)[C@@H](C(C)C)NC(=O)[C@@H](CCCN)NC(=O)[C@@H](c2ccc(O)cc2)NC(=O)[C@@H](CNC(=O)[C@H](CC(N)=O)NC(=O)Cc2ccc3ccccc3c2)[C@@H](C(N)=O)OC(=O)[C@H](c2ccc(O)c(Cl)c2)NC(=O)[C@@H](C)NC1=O.Cl`: the MIC in the data set with Enterococcus faecium [1] was determined as 0.25 µg/mL; in the data set on Staphylococcus aureus [3] it was 1 µg/mL; against Staphylococcus aureus [4], 1 µg/mL; in the data set with Enterococcus faecalis [5] it was 0.125 µg/mL; with Enterococcus faecalis [6], 0.125 µg/mL; in the data set on Enterococcus faecium [7], 0.25 µg/mL. In addition, the MIC was 0.25 µg/mL in the data set on Staphylococcus aureus [8]; 0.25 µg/mL in the data set on Staphylococcus aureus [9]; > 32 µg/mL with Escherichia coli; > 32 µg/mL with Candida albicans; ≤ 0.03 µg/mL with Streptococcus pyogenes. Moreover, in data set [2], the hemolysis at 180 mg/L came to 59%. Also, the hemolysis at 90 mg/L in data set [10] is 24%.
In the case of `CC(C)C[C@@H]1NC(=O)CNC(=O)[C@H](c2ccc(O)cc2)NC(=O)[C@@H]([C@@H](C)O)NC(=O)[C@H](c2ccc(O[C@H]3O[C@H](CO)[C@@H](O)[C@H](O)[C@@H]3O[C@H]3O[C@H](CO)[C@@H](O)[C@H](O)[C@@H]3O)cc2)NC(=O)[C@@H](CCCN)NC(=O)[C@H](Cc2ccccc2)NC(=O)[C@H]([C@@H](C)O)NC(=O)[C@@H](c2ccc(O)cc2)NC(=O)[C@H](c2ccc(O)cc2)NC(=O)[C@@H](C(C)C)NC(=O)[C@@H](CCCN)NC(=O)[C@@H](c2ccc(O)cc2)NC(=O)[C@@H](CNC(=O)[C@H](CC(N)=O)NC(=O)c2ccccc2)[C@@H](C(N)=O)OC(=O)[C@H](c2ccc(O)c(Cl)c2)NC(=O)[C@@H](C)NC1=O`, the MIC was 4 µg/mL (≈ 1.58 µM) with Enterococcus faecium [1]; > 32 µg/mL in the data set on Staphylococcus aureus [3]; 32 µg/mL (≈ 12.6 µM) in the data set on Staphylococcus aureus [4]; 4 µg/mL (≈ 1.58 µM) in the data set with Enterococcus faecalis [5]; 4 µg/mL (≈ 1.58 µM) in the data set with Enterococcus faecalis [6]; 8 µg/mL (≈ 3.16 µM) in the data set on Enterococcus faecium [7]. The MIC in the data set on Staphylococcus aureus [8] was 8 µg/mL (≈ 3.16 µM); in the data set on Staphylococcus aureus [9] it was 8 µg/mL (≈ 3.16 µM); with Escherichia coli it was > 32 µg/mL; in the data set with Candida albicans, > 32 µg/mL; in the data set with Streptococcus pyogenes, 0.125 µg/mL (≈ 0.0493 µM). In addition, in [2], the hemolysis at 180 mg/L amounted to 4%. In data set [10], the hemolysis at 90 mg/L was 0%.

The record behind these values is ChEMBL document CHEMBL1145390, “Synthesis and preliminary biological characterization of new semisynthetic derivatives of ramoplanin” (J Med Chem, 2007).
